# Laboratory results from US20220088127A1, “TARGETING THE BAG FAMILY FOR THE TREATMENT OF NEURODEGENERATIVE DISEASE” (Temple University - of the Commonwealth System of Higher …, priority 2019, published 2022).
# Peptide text beside a SMILES is read from it. * marks the point of attachment. Cbz = O=C(OCc1ccccc1)*
# Tested on: BAG3
# Assay: BAG3 protein level by Western blot
# Assay type: cell-based, rat
# Experimental: Dissociated cell cultures of hippocampal and cortical neurons were prepared using dissected E18 prenatal rat embryonic brains. After digestion in 0.25% trypsin solution, neurons were plated on tissue culture plates and slides pre-coated with poly-D-lysine (Sigma, St. Louis, Mo.) and laminin (Invitrogen 23017, USA). Cells were maintained 14 days prior to treatments. Neurons were transduced with Ad-Null (Vector Biolabs, Malvern, Pa.), Ad-Tat (made in-house), Ad-siBAG3 (Vector Biolabs, Malvern, Pa.) and Ad-BAG3 (Vector Biolabs, Malvern, Pa.) with MOI 1 to 4 or recombinant Tat protein (50 ng/ml, full length, 101 amino acids, Immunodiagnostics, MA). Tat bioactivity was verified by the LTR-luciferase assay. MG132 (5 μM) and Bafilomycin A 1 (50 nM, Sigma) were applied for 4 h prior to lysis to block proteasome and lysosomal autophagy, respectively.
# Neuronal and mouse brain tissue lysates were prepared using RIPA lysis buffer (whole cell extract), Tris-Triton (soluble fraction) or 2% SDS in PBS (insoluble fraction), all containing protease inhibitor cocktail (Sigma-Aldrich, St. Louis, Mo.). Protein concentration was measured using Bio-Rad protein assay reagent (Bio-Rad, Hercules, Calif.). SDS-polyacrylamide gels, 10-12%, and nitrocellulose membranes (LI-COR, Inc., Lincoln, Nebr.) were used for electrophoretic protein separation and transfer, respectively. […]
SMILES,BAG3 levels in Tat-expressing neurons under lysosomal inhibition (Bafilomycin A1),BAG3 levels in Tat-expressing neurons under proteasome inhibition (MG132 for 4 h on day 3 post-transduction)
"CO/C1=C\C(C)=C\[C@@H](C)[C@@H](O)[C@@H](C)C/C(C)=C/C=C/[C@H](OC)[C@@H]([C@@H](C)[C@@H](O)[C@H](C)[C@@]2(O)C[C@@H](O)[C@H](C)[C@@H](C(C)C)O2)OC1=O [Baf A1, Bafilomycin A1]",no significant changes,–
CC(C)C[C@@H](C=O)NC(=O)[C@H](CC(C)C)NC(=O)[C@H](CC(C)C)NC(=O)OCc1ccccc1 [MG132] (Cbz-Leu-Leu-Leu-aldehyde),–,not altered
